Earlier results, collected in patent US20240277629A1, “USE OF THYROID HORMONE T4 IN A HIGH VERSATILITY TREATMENT IN PATIENTS TAKING PROTON PUMP INHIBITORS” (ALTERGON S.A., priority 2021, published 2024).

Details: patients under therapy with PPIs (Centanni et al. 2006)

Increase of daily dose of T4 needed to obtain the desired blood levels of thyroid hormone: 37%
Compound: N[C@@H](Cc1cc(I)c(Oc2cc(I)c(O)c(I)c2)c(I)c1)C(=O)O [T4, levothyroxine]
